≈ marks a conversion by molar mass, not a printed value. Like-named read-outs stand apart in the source and are kept apart here. Some results are limits rather than exact numbers.

The results in this text go back to patent publication US4016158A, “Cephalosporin derivatives” (Roussel-UCLAF, priority 1971, dated 1977).

For one data set, the system named is Bac. Subt. The data set is described as follows: MIC, diffusion method in gelose medium at pH 7 (Table I). It is filed as cell-based. The protocol: (§1) The antibiotic activity was determined by the diffusion method in a gelose medium at a pH of 7. The following Table expresses the minimum concentration of inhibition in mcg/ml (CMl) for the products against different microbial strains.

The test system of the next data set is Escher. Coli UC 1020. The description is as above. In kind it is cell-based. The note with it: Escherichia coli. The procedure: as §1
A further data set concerns Escher. Coli UC 1261. The data set is described as above. It is filed as cell-based. Particulars: Escherichia coli. The procedure:
as §1

The test system of a further data set is Pseudomonas. The description is as above. In kind it is cell-based. Particulars: read-out: minimum concentration of inhibition. The procedure: as §1
The subject of another data set is Staph. U.C. 1128 P(-). Described as above. It is filed as cell-based. Particulars: Staph. UC 1128, penicillin resistant, read-out: minimum concentration of inhibition. The procedure: as §1
Data set [1] deals with Staph. aureus oxford U.C. 1061 P(+). The data set is described as above. The note with it: Staphylococcus aureus. It is filed as cell-based. The protocol:
as §1

The next data set concerns Strept. Fecalis 5432. The data set is described as above. It is filed as cell-based. The procedure:
as §1

Data set [2] has as its system Strept. hemoly. Todd Hewitt. Described as above. In kind it is cell-based. The procedure: as §1
A further data set can be described thus: solubility. It is filed as physicochemical.
Data set [3] has as its system gram positive bacteria such as staphylococci and streptococci. The data set is described as follows: antibacterial activity, statement. The note with it: particularly penicillin resistant staphylococci.
Data set [4] deals with certain gram negative bacteria, particularly coliform bacteria. In words: antibacterial activity, statement.
The subject of data set [5] is Staphylococcus aureus 4546. In words: MIC (Table II). In kind it is cell-based. Particulars: read-out: minimum inhibition concentration. The procedure: as §1
(§2) Using the same procedure as in Table I, the minimum inhibition concentration in mcg/ml was determined against different microbial strains with L(-) cis 7-[D(-)-α-aminophenylacetamido]-3-isopropyl-3-cepheme-4-carboxylic acid (product A) of Example 9.

Data set [6] has as its system Staphylococcus aureus 889. The data set is described as follows: MIC (Table II). In kind it is cell-based. The note with it: read-out: minimum inhibition concentration. The protocol: as §1, §2
Data set [7] deals with Staphylococcus aureus 9373. The data set is described as follows: MIC (Table II). In kind it is cell-based. Particulars: read-out: minimum inhibition concentration. The procedure:
as §1, §2

Data set [8] deals with Staphylococcus aureus 9482. The data set is described as follows: MIC (Table II). In kind it is cell-based. Particulars: read-out: minimum inhibition concentration. The procedure:
as §1, §2

The test system of data set [9] is Staphylococcus aureus 9729. In words: MIC (Table II). It is filed as cell-based. Particulars: read-out: minimum inhibition concentration. The procedure: as §1, §2
Data set [10] has as its system Staphylococcus aureus A8P. In words: MIC (Table II). It is filed as cell-based. Particulars: read-out: minimum inhibition concentration. The protocol: as §1, §2
The mark [11] stands for this setting: Bac. Subt., pH 7, read-out: minimum concentration of inhibition.
The mark [12] stands for this setting: UC1020, Escher. Coli UC 1020, pH 7, read-out: minimum concentration of inhibition.
[13] abbreviates: UC1261, Escher. Coli UC 1261, pH 7, read-out: minimum concentration of inhibition.
[14] abbreviates: UC1061, Staph. aureus oxford UC 1061, penicillin sensitive, pH 7, read-out: minimum concentration of inhibition.
Setting [15] is: Strept. Fecalis 5432, pH 7, read-out: minimum concentration of inhibition.
Where [16] appears, read: Strept. hemoly. Todd Hewitt, pH 7, read-out: minimum concentration of inhibition.
The mark [17] stands for this setting: pH 7, read-out: minimum concentration of inhibition.

`CC(C)C1=C(C(=O)O)N2C(=O)[C@@H](NC(=O)Cc3ccc([N+](=O)[O-])cc3)[C@H]2SC1` (relative stereo) [Example 6, DL cis 7-p-nitrophenylacetamido-3-isopropyl-3-cepheme-4-carboxylic acid]: the MIC in the data set on Bac. Subt. (setting [11]) is 0.2 µg/mL (≈ 0.493 µM); in the data set on Escher. Coli UC 1020 (setting [12]), above 200 µg/mL; in the data set on Escher. Coli UC 1261 (setting [13]), above 200 µg/mL; in the data set on Pseudomonas it was above 200 µg/mL; in the data set on Staph. U.C. 1128 P(-) it was 2 µg/mL (≈ 4.93 µM); in [1] (setting [14]), 0.4 µg/mL (≈ 0.987 µM). The results for the MIC (in the data set with Strept. Fecalis 5432 (setting [15]); in data set [2] (setting [16])) were above 40 µg/mL and 5 µg/mL (≈ 12.3 µM), respectively. For the same compound, the solubility in ethanol entry in the data set “solubility” is “slightly soluble”. In addition, the solubility in water result in “solubility” was “insoluble”.

In the case of `O=C(Cc1ccc([N+](=O)[O-])cc1)NC1C(=O)N2C(C(=O)O)=C(C3CCCC3)CSC12` (stereo not drawn) [Example 11, DL cis 7-p-nitrophenylacetamido-3-cyclopentyl-3-cepheme-4-carboxylic acid], the MIC in the data set with Bac. Subt. (setting [11]) was 0.1 µg/mL (≈ 0.232 µM); in the data set with Staph. U.C. 1128 P(-) it was 0.4 µg/mL (≈ 0.927 µM); in data set [1] (setting [14]) it was 0.2 µg/mL (≈ 0.464 µM); in the data set on Strept. Fecalis 5432 (setting [15]) it was above 40 µg/mL; in [2] (setting [16]), above 40 µg/mL. Besides, in the data set “solubility”, the solubility in ethanol entry was “slightly soluble”. Further, in the data set “solubility”, the solubility in ether entry is “insoluble”. In addition, the solubility in water result in the data set “solubility” is recorded as “insoluble”.

Turning to `CC(C)C1=C(C(=O)O)N2C(=O)[C@@H](NC(=O)Cc3ccc(N)cc3)[C@H]2SC1` (relative stereo) [Example 7, DL cis 7-p-aminophenylacetamido-3-isopropyl-3-cepheme-4-carboxylic acid], the MIC in the data set on Bac. Subt. (setting [11]) is 0.05 µg/mL (≈ 0.133 µM); in the data set with Escher. Coli UC 1020 (setting [12]) it was above 200 µg/mL; in the data set with Escher. Coli UC 1261 (setting [13]), above 200 µg/mL; in the data set on Pseudomonas it was above 200 µg/mL; in [1] (setting [14]), 2 µg/mL (≈ 5.33 µM); in the data set on Strept. Fecalis 5432 (setting [15]) it was above 40 µg/mL. For the same compound, the MIC in data set [2] (setting [16]) was 10 µg/mL (≈ 26.6 µM). Moreover, the solubility in chloroform result in the data set “solubility” (chloroform) was “slightly soluble”. Moreover, the solubility in ethanol entry in the data set “solubility” is “slightly soluble”. For the same compound, the solubility in ether entry in “solubility” is given as “insoluble”. The solubility in water entry in “solubility” is given as “slightly soluble”.

With `CC(C)C1=C(C(=O)O)N2C(=O)[C@@H](NC(=O)Cc3cccs3)[C@H]2SC1` (relative stereo) [Example 8, DL cis 7-(2'-thienyl)-acetamido-3-isopropyl-3-cepheme-4-carboxylic acid], the MIC in the data set with Bac. Subt. (setting [11]) is 0.4 µg/mL (≈ 1.09 µM); in the data set with Escher. Coli UC 1020 (setting [12]), above 200 µg/mL; with Escher. Coli UC 1261 (setting [13]), above 200 µg/mL; in the data set on Pseudomonas it was above 200 µg/mL; with Staph. U.C. 1128 P(-), 5 µg/mL (≈ 13.6 µM); in [1] (setting [14]), 2 µg/mL (≈ 5.46 µM). Also, the results for the MIC (with Strept. Fecalis 5432 (setting [15]); in [2] (setting [16])) were above 40 µg/mL and 10 µg/mL (≈ 27.3 µM), respectively. In addition, the solubility in ethanol entry in the data set “solubility” was “slightly soluble”. Besides, the solubility in methanol result in the data set “solubility” (methanol) is “soluble”. Also, in “solubility”, the solubility in water result is recorded as “insoluble”.

Turning to `N[C@@H](C(=O)N[C@@H]1C(=O)N2C(C(=O)O)=C(C3CCCC3)CS[C@H]12)c1ccccc1` [Example 10, L(+) 6R, 7R 7-[R(-)-α-aminophenylacetamido]-3-cyclopentyl-3-cepheme-4-carboxylicacid], the MIC in the data set on Bac. Subt. (setting [11]) worked out at 0.05 µg/mL (≈ 0.125 µM); with Staph. U.C. 1128 P(-) it was 1 µg/mL (≈ 2.49 µM); in [1] (setting [14]), 0.4 µg/mL (≈ 0.996 µM); with Strept. Fecalis 5432 (setting [15]) it was 20 µg/mL (≈ 49.8 µM); in [2] (setting [16]), 10 µg/mL (≈ 24.9 µM). For the same compound, the solubility in ethanol entry in “solubility” is “slightly soluble”. Also, the solubility in ether entry in “solubility” was “insoluble”. For the same compound, the solubility in water result in “solubility” was “slightly soluble”. In data set [3], the “activity against gram positive bacteria” value is recorded as “active”. In addition, the “activity against certain gram negative bacteria” value in data set [4] is recorded as “active”.

`CC1=C(C(=O)O)N2C(=O)[C@@H](NC(=O)[C@H](N)c3ccccc3)[C@H]2SC1` [Cephalexin, reference compound]: the MIC came to 0.2 µg/mL (≈ 0.576 µM) in the data set with Bac. Subt. (setting [17]); 20 µg/mL (≈ 57.6 µM) in the data set on Escher. Coli UC 1020 (UC1020, pH 7, read-out: minimum concentration of inhibition); 20 µg/mL (≈ 57.6 µM) in the data set on Escher. Coli UC 1261 (UC1261, pH 7, read-out: minimum concentration of inhibition); 10 µg/mL (≈ 28.8 µM) in the data set on Staph. U.C. 1128 P(-); 2 µg/mL (≈ 5.76 µM) in data set [1] (UC1061, pH 7, read-out: minimum concentration of inhibition); 60 µg/mL (≈ 173 µM) in the data set with Strept. Fecalis 5432 (setting [17]). Further, the MIC in data set [2] (setting [17]) turned out to be 10 µg/mL (≈ 28.8 µM); in data set [5] (Staphylococcus aureus, 4546, 24 h) it was 1 µg/mL (≈ 2.88 µM); in [5] (Staphylococcus aureus, 4546, 48 h) it was 3 µg/mL (≈ 8.64 µM); in data set [6] (Staphylococcus aureus, 889, 24 h), 5 µg/mL (≈ 14.4 µM); in [6] (Staphylococcus aureus, 889, 48 h), 10 µg/mL (≈ 28.8 µM); in [7] (Staphylococcus aureus, 9373, 24 h), 2 µg/mL (≈ 5.76 µM). The MIC in [7] (Staphylococcus aureus, 9373, 48 h) is 3 µg/mL (≈ 8.64 µM); in data set [8] (Staphylococcus aureus, 9482, 24 h), 1 µg/mL (≈ 2.88 µM); in [8] (Staphylococcus aureus, 9482, 48 h) it was 1 µg/mL (≈ 2.88 µM); in [9] (Staphylococcus aureus, 9729, 24 h), 2 µg/mL (≈ 5.76 µM); in [9] (Staphylococcus aureus, 9729, 48 h) it was 3 µg/mL (≈ 8.64 µM); in [10] (24 h), 2 µg/mL (≈ 5.76 µM). For the same compound, the MIC in [10] (48 h) came to 5 µg/mL (≈ 14.4 µM).

Take `O=C(Cc1cccs1)NC1C(=O)N2C(C(=O)O)=C(C3CCCC3)CSC12` (stereo not drawn) [Example 13, DL cis 7-(2'-thienyl)-acetamido-3-cyclopentyl-3-cepheme-4-carboxylic acid]: the MIC is 1 µg/mL (≈ 2.55 µM) in the data set with Bac. Subt. (setting [11]), 1 µg/mL (≈ 2.55 µM) in data set [1] (setting [14]), 20 µg/mL (≈ 51 µM) with Strept. Fecalis 5432 (setting [15]) and above 40 µg/mL in [2] (setting [16]). The solubility in ether result in “solubility” is recorded as “insoluble”. In addition, in “solubility”, the solubility in water result is recorded as “slightly soluble”.

Regarding `Nc1ccc(CC(=O)NC2C(=O)N3C(C(=O)O)=C(C4CCCC4)CSC23)cc1` (stereo not drawn) [Example 12, DL cis 7-p-aminophenylacetamido-3-cyclopentyl-3-cepheme-4-carboxylic acid], in “solubility”, the solubility in ethanol result was “soluble”, the solubility in ether entry is “insoluble” and the solubility in water result was “slightly soluble”.
